For one data set, the target named is T1, longitudinal muscle from the intact ileum of guinea-pigs (response to histamine) (Cavia porcellus, UniProt P31389).
T1 construct: The longitudinal muscle was isolated from the intact ileum of guinea-pigs; from tissue; host or cells: longitudinal muscle of guinea-pig ileum (Hartley, male)
T1 sequence (P31389 whole entry): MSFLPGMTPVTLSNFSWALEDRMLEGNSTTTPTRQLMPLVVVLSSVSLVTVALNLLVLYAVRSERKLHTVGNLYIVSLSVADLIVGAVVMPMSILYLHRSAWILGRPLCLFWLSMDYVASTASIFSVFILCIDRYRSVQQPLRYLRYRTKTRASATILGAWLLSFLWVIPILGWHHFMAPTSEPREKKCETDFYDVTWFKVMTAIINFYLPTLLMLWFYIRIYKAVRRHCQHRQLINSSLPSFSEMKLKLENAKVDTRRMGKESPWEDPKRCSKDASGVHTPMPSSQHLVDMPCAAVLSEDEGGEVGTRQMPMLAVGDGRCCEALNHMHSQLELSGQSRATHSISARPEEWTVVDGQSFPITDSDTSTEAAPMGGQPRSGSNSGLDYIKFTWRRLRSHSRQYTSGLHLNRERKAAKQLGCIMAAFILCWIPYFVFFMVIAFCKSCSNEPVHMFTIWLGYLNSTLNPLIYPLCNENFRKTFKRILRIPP
Experiment: not given
Particulars: literature value, R. B. Barlow, Introduction to Chemical Pharmacology, 2nd ed., p. 357, 1964; cited from earlier work.
As a reminder, the pA2 is a measure of antagonist potency on a negative log scale. In the case of `CN1CCN(C(c2ccccc2)c2ccc(Cl)cc2)CC1` (stereo not shown) [Chlorcyclizine, 1-(4-Chlorobenzhydryl)-4-methylpiperazine], the pA2 was 8.6.

Another data set deals with T1, longitudinal muscle from the intact ileum of guinea-pigs (response to histamine). The experiment in a line: In vitro antihistaminic activity (inhibition of histamine concentration-response in isolated ileum longitudinal muscle). Set-up: species or system guinea-pigs (Hartley, male). Particulars: negative log of the concentration which gives a significant antihistaminic effect; guinea-pig ileum longitudinal muscle; one hour incubation with test compound; Arunlakshana and Schild method; read-out: pA2 (converted). As for the experimental part: In vitro antihistaminic activity: The longitudinal muscle was isolated from the intact ileum of guinea-pigs (Hartley, male, 250-400 g) and placed in an organ bath under 300 mg tension. After one hour of equilibration, cumulative concentration-response curves (Van Rossum, J. M., Arch. Int. Pharmacodyn. Ther. 143, 299-330, 1963) to histamine were obtained. Following washing, the tissues were incubated for one hour with the test compound and then a second histamine concentration-response curve was run. Antihistaminic activity was determined as pA2 values by the method of Arunlakshana, O. and Schild, H. O. (Br. J. Pharmacol: 14, 48-58, 1959).
In the case of `CN1CCN(C(c2ccc(Cl)cc2)c2cccc(/C=C/C(=O)O)c2)CC1` (stereo not drawn) [A, (E)-3-(4-Chloro-α-(4-methyl-1-piperazinyl)-benzyl)cinnamic acid], the Kb is 501 nM. On the same count and under the same terms, then `CN1CCN(C(c2ccc(Cl)cc2)c2cccc(C(=O)O)c2)CC1` (stereo not drawn) [B, 3-(4-Chloro-α-(4-methyl-1-piperazinyl)benzyl)benzoic acid], with 398 nM; and `CN1CCN(C(c2ccc(Cl)cc2)c2ccccc2C(=O)O)CC1` (stereo not drawn) [C, 2-(4-Chloro-α-(4-methyl-1-piperazinyl)benzyl)benzoic acid], with 2510 nM; and `CN1CCN(C(c2ccc(Cl)cc2)c2ccc(C(=O)O)cc2)CC1` (stereo not drawn) [D, 4-(4-Chloro-α-(4-methyl-1-piperazinyl)benzyl)benzoic acid], with 2510 nM. On the same count and under the same terms, with `COc1ccc(C(c2cccc(C(=O)O)c2)N2CCN(C)CC2)cc1` (stereo not drawn) [E, 3-(4-Methoxy-α-(4-methyl-1-piperazinyl)benzyl)benzoic acid] the figure was 316 nM; with `CN1CCN(C(c2ccc(Cl)cc2)c2cccc(OCC(=O)O)c2)CC1` (stereo not drawn) [F, 3-(4-Chloro-α-(4-methyl-1-piperazinyl)benzyl)phenoxyacetic acid], 158 nM; with `Cc1cccc(CN2CCN(C(c3ccc(Cl)cc3)c3cccc(OCC(=O)O)c3)CC2)c1` (stereo not drawn) [G, 3-(4-Chloro-α-(4-(3-methylbenzyl)-1-piperazinyl)benzyl)phenoxyacetic acid], 1.58 nM. As for `CC(C)(C)c1ccc(CN2CCN(C(c3ccc(Cl)cc3)c3cccc(OCC(=O)O)c3)CC2)cc1` (stereo not drawn) [H, 3-(4-Chloro-α-(4-(4-tert-butylbenzyl)-1-piperazinyl)benzyl)phenoxyacetic acid], the Kb is 6.31 nM.

Tested on in the next data set: not given
Experiment: not given
The following applies: clinical use, most patients; Goodman and Gilman, 4th ed., p. 640, 1970; cited from earlier work.
As to `CN1CCN(C(c2ccccc2)c2ccc(Cl)cc2)CC1` (stereo not shown) [Chlorcyclizine, 1-(4-Chlorobenzhydryl)-4-methylpiperazine], the sedation and drowsiness entry was “produces sedation and drowsiness in varying degrees in most patients”.

(Values after patent publication US4757074A, “Piperazinyl benzyl acids having antihistamine activity” (Burroughs Wellcome Co., priority 1983, dated 1988).)
